Assay results taken from ChEMBL document CHEMBL3351666, “Nocatriones A and B, photoprotective tetracenediones from a marine-derived Nocardiopsis sp” (J Nat Prod, 2014).

Columns and labels:
[1] = Cytotoxicity against human MCTT MC1233 cells assessed as reduction in cell viability at 1 to 10 uM incubated for 72 hrs by MTT assay; type: cell-based; details: mctt mc1233, 72 h
[2] = Reduction in MMP1 secretion in human MCTT MC1233 cells at 5 uM by ELISA method; type: functional
[3] = Reduction in MMP1 secretion in human MCTT MC1233 cells at 10 uM by ELISA method; type: functional
MCTT MC1233 = assay: Reduction in UVB radiation-induced MMP1 secretion in human MCTT MC1233 cells exposed to 144 mJ/cm2 UVB irradiation by ELISA method; type: functional, cell-based
[4] = Cytotoxicity against human MCTT MC1233 cells exposed to 144 mJ/cm2 UVB irradiation assessed as reduction in cell viability at 1 to 10 uM incubated for 72 hrs by MTT assay; type: cell-based; details: mctt mc1233, 72 h
[5] = Reduction in UVB radiation-induced MMP1 secretion in human MCTT MC1233 cells at 10 uM exposed to 144 mJ/cm2 UVB irradiation by ELISA method; type: functional; details: MCTT MC1233, light or radiation study
[6] = Cytotoxicity against human ScienCell 2320 cells assessed as reduction in cell viability at 1 to 10 uM incubated for 72 hrs by MTT assay; type: cell-based; details: sciencell 2320, 72 h
[7] = Cytotoxicity against human ScienCell 2320 cells exposed to 144 mJ/cm2 UVB irradiation assessed as reduction in cell viability at 1 to 10 uM incubated for 72 hrs by MTT assay; type: cell-based; details: sciencell 2320, 72 h
[8] = Reduction in MMP1 secretion in human ScienCell 2320 cells at 10 uM by ELISA method; type: functional
[9] = Reduction in UVB radiation-induced MMP1 secretion in human ScienCell 2320 cells at 10 uM exposed to 144 mJ/cm2 UVB irradiation by ELISA method; type: functional; details: ScienCell 2320, light or radiation study

SMILES	Activity [1]	inhibition at 5 µM [2]	inhibition at 10 µM [3]	inhibition (MCTT MC1233)	Activity [4]	inhibition at 10 µM [5]	Activity [6]	Activity [7]	inhibition at 10 µM [8]	inhibition at 10 µM [9]
Cc1c2c(cc(O)c1-c1cc(O)cc(=O)o1)C(=O)c1cc3cc(O)cc(O)c3c(O)c1C2=O	Non-toxic	58%	83%	Dose-dependent effect	Non-toxic	65%	Non-toxic	Non-toxic	99%	99%
Cc1c(-c2cc(O)cc(=O)o2)c(O)cc2cc3c(c(O)c12)C(=O)c1c(O)cc(O)cc1C3=O	Non-toxic			Dose-dependent effect	Non-toxic	18%	Non-toxic	Non-toxic	93%	91%
